Experimental data from a compilation of properties of binary mixtures (doi:10.1021/acs.jced.1c00111).

Assay: xn = mol fraction of the nth substance listed
Conditions: 100 kPa

Molecule `CC[NH+](C)CC.CS(=O)(=O)[O-]` + O has a viscosity (298.15 K, x1 = 0.0155) of 1.28 mPa·s, a viscosity (298.15 K, x1 = 0.0356) of 2.02 mPa·s and a viscosity (298.15 K, x1 = 0.0571) of 2.57 mPa·s. For the same molecule, the viscosity (298.15 K, x1 = 0.0757) was 3.43 mPa·s, the viscosity (298.15 K, x1 = 0.1234) was 5.96 mPa·s and the viscosity (298.15 K, x1 = 0.1582) was 8.21 mPa·s. For the same molecule, the viscosity (298.15 K, x1 = 0.206) was 11.6 mPa·s, the viscosity (298.15 K, x1 = 0.3246) was 20 mPa·s and the viscosity (298.15 K, x1 = 0.5018) was 42.1 mPa·s. It also gave a viscosity (298.15 K, x1 = 0.5783) of 52.8 mPa·s, a viscosity (298.15 K, x1 = 0.7782) of 90.5 mPa·s and a viscosity (303.15 K, x1 = 0.0155) of 1.15 mPa·s. It also gave a viscosity (303.15 K, x1 = 0.0356) of 1.84 mPa·s, a viscosity (303.15 K, x1 = 0.0571) of 2.27 mPa·s and a viscosity (303.15 K, x1 = 0.0757) of 2.99 mPa·s. The viscosity (303.15 K, x1 = 0.1234) was 5.09 mPa·s, the viscosity (303.15 K, x1 = 0.1582) was 6.94 mPa·s and the viscosity (303.15 K, x1 = 0.206) was 9.76 mPa·s. It also gave a viscosity (303.15 K, x1 = 0.4263) of 25.9 mPa·s, a viscosity (303.15 K, x1 = 0.5018) of 34 mPa·s and a viscosity (303.15 K, x1 = 0.5783) of 42.1 mPa·s. For the same molecule, the viscosity (303.15 K, x1 = 0.7782) was 70.3 mPa·s, the viscosity (308.15 K, x1 = 0.0356) was 1.64 mPa·s and the viscosity (308.15 K, x1 = 0.0571) was 2 mPa·s. For the same molecule, the viscosity (308.15 K, x1 = 0.0757) was 2.64 mPa·s, the viscosity (308.15 K, x1 = 0.0967) was 3.45 mPa·s and the viscosity (308.15 K, x1 = 0.1234) was 4.39 mPa·s. It also gave a viscosity (308.15 K, x1 = 0.1582) of 5.93 mPa·s, a viscosity (308.15 K, x1 = 0.206) of 8.3 mPa·s and a viscosity (308.15 K, x1 = 0.3246) of 13.9 mPa·s. It also gave a viscosity (308.15 K, x1 = 0.4263) of 22 mPa·s, a viscosity (308.15 K, x1 = 0.6771) of 44.2 mPa·s and a viscosity (313.15 K, x1 = 0.0155) of 0.957 mPa·s. For the same molecule, the viscosity (313.15 K, x1 = 0.0356) was 1.47 mPa·s, the viscosity (313.15 K, x1 = 0.0757) was 2.34 mPa·s and the viscosity (313.15 K, x1 = 0.0967) was 3.05 mPa·s. It also gave a viscosity (313.15 K, x1 = 0.1234) of 3.82 mPa·s, a viscosity (313.15 K, x1 = 0.1582) of 5.13 mPa·s and a viscosity (313.15 K, x1 = 0.206) of 7.11 mPa·s. For the same molecule, the viscosity (313.15 K, x1 = 0.5018) was 22.8 mPa·s, the viscosity (313.15 K, x1 = 0.5783) was 28.3 mPa·s and the viscosity (313.15 K, x1 = 0.6771) was 36 mPa·s. It also gave a viscosity (313.15 K, x1 = 0.7782) of 44.9 mPa·s, a viscosity (318.15 K, x1 = 0.0155) of 0.876 mPa·s and a viscosity (318.15 K, x1 = 0.0356) of 1.34 mPa·s. The viscosity (318.15 K, x1 = 0.0571) was 1.61 mPa·s, the viscosity (318.15 K, x1 = 0.0757) was 2.09 mPa·s and the viscosity (318.15 K, x1 = 0.0967) was 2.7 mPa·s. The viscosity (318.15 K, x1 = 0.1234) was 3.35 mPa·s, the viscosity (318.15 K, x1 = 0.206) was 6.12 mPa·s and the viscosity (318.15 K, x1 = 0.3246) was 10.1 mPa·s. It also gave a viscosity (318.15 K, x1 = 0.4263) of 15.6 mPa·s, a viscosity (318.15 K, x1 = 0.5018) of 19.4 mPa·s and a viscosity (318.15 K, x1 = 0.5783) of 23.6 mPa·s. It also gave a viscosity (318.15 K, x1 = 0.6771) of 29.8 mPa·s, a viscosity (318.15 K, x1 = 0.7782) of 36.5 mPa·s and a viscosity (323.15 K, x1 = 0.0155) of 0.806 mPa·s. The viscosity (323.15 K, x1 = 0.0356) was 1.22 mPa·s, the viscosity (323.15 K, x1 = 0.0571) was 1.45 mPa·s and the viscosity (323.15 K, x1 = 0.0757) was 1.87 mPa·s. It also gave a viscosity (323.15 K, x1 = 0.0967) of 2.42 mPa·s, a viscosity (323.15 K, x1 = 0.1234) of 2.97 mPa·s and a viscosity (323.15 K, x1 = 0.1582) of 3.92 mPa·s. It also gave a viscosity (323.15 K, x1 = 0.206) of 5.3 mPa·s, a viscosity (323.15 K, x1 = 0.3246) of 8.94 mPa·s and a viscosity (323.15 K, x1 = 0.4263) of 13.2 mPa·s. For the same molecule, the viscosity (323.15 K, x1 = 0.5018) was 16.5 mPa·s, the viscosity (323.15 K, x1 = 0.5783) was 20 mPa·s and the viscosity (323.15 K, x1 = 0.6771) was 24.8 mPa·s. For the same molecule, the viscosity (323.15 K, x1 = 0.7782) was 30 mPa·s, the viscosity (328.15 K, x1 = 0.0155) was 0.751 mPa·s and the viscosity (328.15 K, x1 = 0.0356) was 1.13 mPa·s. The viscosity (328.15 K, x1 = 0.0571) was 1.31 mPa·s, the viscosity (328.15 K, x1 = 0.0757) was 1.68 mPa·s and the viscosity (328.15 K, x1 = 0.0967) was 2.17 mPa·s. For the same molecule, the viscosity (328.15 K, x1 = 0.1234) was 2.64 mPa·s, the viscosity (328.15 K, x1 = 0.3246) was 7.81 mPa·s and the viscosity (328.15 K, x1 = 0.4263) was 11.5 mPa·s. For the same molecule, the viscosity (328.15 K, x1 = 0.5783) was 17 mPa·s, the viscosity (328.15 K, x1 = 0.6771) was 21.1 mPa·s and the viscosity (333.15 K, x1 = 0.0155) was 0.693 mPa·s. The viscosity (333.15 K, x1 = 0.0356) was 1.04 mPa·s, the viscosity (333.15 K, x1 = 0.0571) was 1.2 mPa·s and the viscosity (333.15 K, x1 = 0.0757) was 1.53 mPa·s. The viscosity (333.15 K, x1 = 0.1234) was 2.36 mPa·s, the viscosity (333.15 K, x1 = 0.1582) was 3.08 mPa·s and the viscosity (333.15 K, x1 = 0.206) was 4.03 mPa·s. For the same molecule, the viscosity (333.15 K, x1 = 0.4263) was 9.9 mPa·s, the viscosity (333.15 K, x1 = 0.5783) was 14.5 mPa·s and the viscosity (333.15 K, x1 = 0.6771) was 18.1 mPa·s. The viscosity (333.15 K, x1 = 0.7782) was 22.2 mPa·s, the viscosity (338.15 K, x1 = 0.0155) was 0.643 mPa·s and the viscosity (338.15 K, x1 = 0.0356) was 0.953 mPa·s. It also gave a viscosity (338.15 K, x1 = 0.0757) of 1.39 mPa·s, a viscosity (338.15 K, x1 = 0.0967) of 1.79 mPa·s and a viscosity (338.15 K, x1 = 0.1234) of 2.12 mPa·s. For the same molecule, the viscosity (338.15 K, x1 = 0.1582) was 2.75 mPa·s, the viscosity (338.15 K, x1 = 0.206) was 3.55 mPa·s and the viscosity (338.15 K, x1 = 0.7782) was 18.7 mPa·s.
